According to publication PMC10308680 (Journal of Biomedical Science, 2023):
Values joined by “and” are separate entries in the source; they are usually repeats but may differ in a detail not shown here. Equal entries are not always repeated.

Tests used:
B7-2/CD28 = assay type: cell-based, human
[1] = test system: CD28/B7-2 (cell-surface B7-2); assay type: cell-based, human

ASMDYPVL [p2TAsc]
Per cent doubly labeled cells (B7-2/CD28) (B7-2/CD28): 8.4% and 9.0% and 8.6%
attenuation of intercellular B7-2/CD28 engagement (in words) (B7-2/CD28): fails to attenuate intercellular B7-2/CD28 engagement
inhibition of binding of soluble CD28 to cell-surface B7-2 [1]: abrogated the ability of p2TA to inhibit binding of CD28 to cell-surface B7-2
